In article PMC3575848 (Nucleic Acids Research, 2012) one finds Tm and Kd data, which are given here for one compound.

Holding throughout (assay type): binding
The target in test [1] is T1, HsaDRS2 (Homo sapiens, UniProt Q6PI48).
T1 sequence (Q6PI48 41-645): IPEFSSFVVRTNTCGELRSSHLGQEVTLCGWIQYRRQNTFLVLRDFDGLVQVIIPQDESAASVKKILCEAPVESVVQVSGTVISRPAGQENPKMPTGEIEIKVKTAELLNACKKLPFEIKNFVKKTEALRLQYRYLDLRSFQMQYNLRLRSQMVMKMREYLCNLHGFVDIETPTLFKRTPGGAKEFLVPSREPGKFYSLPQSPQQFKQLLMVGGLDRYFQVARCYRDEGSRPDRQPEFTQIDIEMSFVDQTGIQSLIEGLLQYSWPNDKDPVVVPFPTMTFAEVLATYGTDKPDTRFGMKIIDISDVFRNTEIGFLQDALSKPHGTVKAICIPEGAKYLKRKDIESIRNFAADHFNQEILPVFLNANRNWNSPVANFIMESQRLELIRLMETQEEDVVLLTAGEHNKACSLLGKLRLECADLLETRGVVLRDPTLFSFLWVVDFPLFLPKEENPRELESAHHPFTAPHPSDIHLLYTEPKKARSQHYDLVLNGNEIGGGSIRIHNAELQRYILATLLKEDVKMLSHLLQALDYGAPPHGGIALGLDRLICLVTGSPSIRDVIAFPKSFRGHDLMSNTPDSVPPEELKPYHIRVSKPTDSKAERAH
The test is described as follows: thermal shift by dynamic light scattering and differential scanning fluorimetry. To be noted: protein 3 mg/ml, temperature gradient. For orientation: DSF heats the sample and reads unfolding from a dye or from intrinsic fluorescence.

Test [2] concerns the target T1, HsaDRS2. Description: isothermal titration calorimetry. In general terms: ITC needs no label: the signal is the heat of the interaction.
The target of test [3] is T2, EcoDRS (Escherichia coli, UniProt P21889). The test is described as follows: thermal shift by dynamic light scattering. The settings on record: protein 3 mg/ml, temperature gradient.
T2 sequence (P21889 whole entry): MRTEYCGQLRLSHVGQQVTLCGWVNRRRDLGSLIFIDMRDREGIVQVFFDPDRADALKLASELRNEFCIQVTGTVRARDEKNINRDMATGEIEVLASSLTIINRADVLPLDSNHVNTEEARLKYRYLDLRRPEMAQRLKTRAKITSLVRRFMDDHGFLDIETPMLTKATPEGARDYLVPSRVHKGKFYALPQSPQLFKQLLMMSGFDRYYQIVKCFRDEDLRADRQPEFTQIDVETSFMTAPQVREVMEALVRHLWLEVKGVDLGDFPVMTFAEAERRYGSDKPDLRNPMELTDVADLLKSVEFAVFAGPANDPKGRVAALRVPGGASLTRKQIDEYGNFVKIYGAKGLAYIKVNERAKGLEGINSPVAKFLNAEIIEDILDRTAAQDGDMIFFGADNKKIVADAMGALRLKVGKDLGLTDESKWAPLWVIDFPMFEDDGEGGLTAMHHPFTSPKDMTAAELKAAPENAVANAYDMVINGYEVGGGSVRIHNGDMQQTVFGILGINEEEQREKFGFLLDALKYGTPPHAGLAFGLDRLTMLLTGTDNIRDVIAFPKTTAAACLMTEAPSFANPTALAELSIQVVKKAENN
Test [4] concerns the target T2, EcoDRS. Description: isothermal titration calorimetry.

As to `Nc1ncnc2c1ncn2[C@@H]1O[C@H](COS(=O)(=O)NC(=O)[C@@H](N)CC(=O)O)[C@@H](O)[C@H]1O` [Asp–AMS, 5′-O-[N-(L-aspartyl)sulfamoyl] adenosine], the figures for the Tm result on HsaDRS2 [1] and at EcoDRS [3] were “Significant stabilization was observed in the presence of Asp–AMS” and “only Asp–AMS (dashed grey line) influences the thermostability of the two enzymes positively”, respectively. Moreover, the values for the Kd on HsaDRS2 [2] and on EcoDRS [4] were 17.5 ± 12 nM and 2.95 ± 1.34 nM, respectively.

A word on the Kd: it is the constant that tells how readily two partners part at equilibrium. Low values mean tighter binding, high ones weaker binding.
